Test results as given in US5919668A, “Non-reducing saccharide and its production and use” (Kabushiki Kaisha Hayashibara Seibutsu Kagaku Kenkyujo, priority 1994, dated 1999).

Key:
pig kidney trehalase = assay: Degradation by pig kidney trehalase; type: biochemical; settings: trehalose, or trehalose formed from PI-PV; pH5.7, 37° C., 18 hours for the latter
Method: In order to purify trehalose from respective reaction products, they were decolored, deionized, concentrated and subjected to column fractionation on a strongly-acidic cation exchange of sodium form "XT-1016", followed by recovering high-purity fractions with trehalose contents of 97% or higher. The fractions were then concentrated to about 65% and allowed to standing at 25° C. for 2 days to crystallize out crystalline trehalose hydrate which was then separated and dried in vacuo to obtain a high-purity preparation with a trehalose content of 99% or higher. The yields against respective starting substrates on dry solid basis were as follows: from glycosyl trehalose, 9.5%; from maltosyl trehalose, 14.9%; from maltotriosyl trehalose, 16.0%; from maltotetraosyl trehalose, 18.5%; and from maltopentaosyl trehalose, 17.7%. […] As evident from the above results, the saccharides formed by subjecting alpha-glycosyl trehaloses to the trehalose-releasing enzyme were identified to be trehalose.

[1] = system: acetone-pulverized rat small intestine enzyme; assay: Degradation by acetone-pulverized rat small intestine enzyme; type: biochemical
Method: (§1) The non-reducing saccharide preparations PI, PII, PIII, PIV and PV as substrates prepared in Experiment 4 were subjected to pig pancreas alpha-amylase, rice alpha-glucosidase and acetone-pulverized rat small intestine enzyme, all of which were products of Sigma Chemical Co., St Louis, Mo., USA, and the degradation products were analyzed on high-performance liquid chromatography for saccharide composition. The reaction by alpha-amylase was carried out by dissolving 10 mg of either substrate in 1 ml of 50 mM phosphate buffer (pH6.9), adding thereto one unit of alpha-amylase and incubating at 37° C. for 18 hours. The reaction by alpha-glucosidase was conducted similarly as in the case of alpha-amylase except that 50 mM acetate buffer (pH4.0) was used. In the case of acetone-pulverized rat small intestine enzyme, the reaction was conducted similarly as in the case of alpha-amylase except that 50 mM maleic acid buffer (pH6.0) was used.

[2] = Reducing power by the Somogyi-Nelson method, represented in terms of DE; type: physicochemical; settings: high-purity preparations, Somogyi-Nelson method
Method: The high-purity preparations of the newly formed saccharides were determined for reducing power by the Somogyi-Nelson method and represented in terms of DE.

[3] = system: pig pancreas alpha-amylase; assay: Degradation by pig pancreas alpha-amylase; type: biochemical
Method: as §1

beta-amylase = assay: Degradation by beta-amylase; type: biochemical
From the text: Considering the reaction characteristics of glucoamylase, these saccharides very likely bear structures where glucose molecule(s) is bound to trehalose molecule via alpha1,4 or alpha-1,6 linkage: Saccharide PI is a non-reducing saccharide with a glucose polymerization degree of 3 where one glucose molecule is bound to one trehalose molecule; saccharide PII, another non-reducing saccharide with a glucose polymerization degree of 4 where two glucose molecules are bound to one trehalose molecule; saccharide PIII, still another non-reducing saccharide with a glucose polymerization degree of 5 where three glucose molecules are bound to one trehalose molecule; saccharide PIV, still another non-reducing saccharide with a glucose polymerization degree of 6 where four glucose molecules are bound to one trehalose molecule; and saccharide PV, still another non-reducing saccharide with a polymerization degree of 7 where five glucose molecules are bound to one trehalose molecule.

glucoamylase = assay: Enzymatic hydrolysis by glucoamylase; type: biochemical
Method: Fifty milligrams of the non-reducing saccharide preparation PI, PII, PIII, PIV or PV prepared in Experiment 4 was dissolved in 1 ml of 50 mM acetate buffer (pH4.5), added with one unit of the glucoamylase commercialized by Seikagaku Corp., Tokyo, Japan, incubated at 40° C. for 6 hours for enzymatic hydrolysis and analyzed for degradation products on high-performance liquid chromatography, thus detecting glucose and trehalose as sole products. The noted glucose contents, trehalose contents and their molar ratios were as shown in Table 5.

[4] = Maillard reaction (coloration with glycine, absorbance at 480 nm); type: physicochemical
Method: Solutions of 10% saccharide preparation PI, PII, PIII, PIV or PV prepared in Experiment 4 and 1% glycine in 50 mM phosphate buffer (pH7.0) were incubated at 100° C. for 90 minuets, cooled and determined in 1 cm cuvette for absorbance at 480 nm. As control, maltotriose, maltotetraose, maltopentaose, maltohexaose and maltoheptaose which were used as the starting materials were treated similarly as above and determined for absorbance at 480 nm.
10% High-purity trehalose preparation, purity of 99.5%, obtained by the method in Experiment 17 and 1% glycine in 50 mM phosphate buffer (pH7.0) was incubated at 100° C. for 90 minutes, cooled and measured in lcm cuvette for absorbance at 480 nm. As control, glucose and maltose were treated similarly as above and then measured for absorbance at 480 nm.

rice alpha-glucosidase = assay: Degradation by rice alpha-glucosidase; type: biochemical
Method: as §1

Question: For `OC[C@H]1O[C@H](O[C@H]2O[C@H](CO)[C@@H](O[C@H]3O[C@H](CO)[C@@H](O)[C@H](O)[C@H]3O)[C@H](O)[C@H]2O)[C@H](O)[C@@H](O)[C@@H]1O` [PI, alpha-glucosyl trehalose], which “Degradation by pig kidney trehalase (in words)” value (pig kidney trehalase) is on record?
Answer: The value was “degradable into glucose by the trehalase”.

Question: And the “Degradation by acetone-pulverized rat small intestine enzyme (in words)” value [1]?
Answer: Its value is “degradable”.

Question: And the “Glucose in degradation product by acetone-powdered rat small intestine enzyme” value ([1]; pH6.0, 37° C., 18 hours)?
Answer: The value was 37.2%.

Question: And the “Others in degradation product by acetone-powdered rat small intestine enzyme” value ([1]; pH6.0, 37° C., 18 hours)?
Answer: The value was 0.4%.

Question: What about the “Trehalose in degradation product by acetone-powdered rat small intestine enzyme” value ([1]; pH6.0, 37° C., 18 hours) of the same compound?
Answer: Its value is 62.4%.

Question: And the “DE of saccharide preparation” value [2]?
Answer: Its value is 0.83.

Question: And the “Degradation by alpha-amylase (in words)” value [3]?
Answer: Its value is “hardly degraded by alpha-amylase”.

Question: And the “G1 (glucose) in degradation product by alpha-amylase” value ([3]; pH6.9, 37° C., 18 hours)?
Answer: The value was 0%.

Question: And the “G2 (maltose) in degradation product by alpha-amylase” value ([3]; pH6.9, 37° C., 18 hours)?
Answer: The value was 0.4%.

Question: And the “G3 (maltotriose) in degradation product by alpha-amylase” value ([3]; pH6.9, 37° C., 18 hours)?
Answer: The value was 2.3%.

Question: And the “PI in degradation product by alpha-amylase” value ([3]; pH6.9, 37° C., 18 hours)?
Answer: Its value is 97.3%.

Question: What about the “PII in degradation product by alpha-amylase” value ([3]; pH6.9, 37° C., 18 hours) of the same compound?
Answer: The value was 0%.

Question: What about the “Degradation by beta-amylase (in words)” value (beta-amylase) of the same compound?
Answer: The value was “not degraded”.

Question: And the “Degradation by glucoamylase (in words)” value (glucoamylase)?
Answer: The value was “degraded by glucoamylase into one glucose molecule and one trehalose molecule”.

Question: And the “Molar ratio (glucose/trehalose)” value (glucoamylase; degradation product by glucoamylase)?
Answer: Its value is 1.07.

Question: And the “Glucose in degradation product by glucoamylase” value (glucoamylase; pH4.5, 40° C., 6 hours)?
Answer: Its value is 36.2%.

Question: What about the “Trehalose in degradation product by glucoamylase” value (glucoamylase; pH4.5, 40° C., 6 hours) of the same compound?
Answer: The value was 63.8%.

Question: And the “Coloration degree at 480 nm” value ([4]; 10% saccharide, 1% glycine, 50 mM phosphate buffer pH7.0, 100° C., 90 minutes, 1 cm cuvette)?
Answer: The value was 0.027.

Question: And the “Coloration degree relative to maltooligosaccharides as material” value ([4]; 480 nm, with glycine)?
Answer: The value was 3-6%.

Question: What about the “Degradation by alpha-glucosidase (in words)” value (rice alpha-glucosidase) of the same compound?
Answer: The value was “degradable”.

Question: And the “Glucose in degradation product by alpha-glucosidase” value (rice alpha-glucosidase; pH4.0, 37° C., 18 hours)?
Answer: The value was 36.5%.

Question: What about the “Others in degradation product by alpha-glucosidase” value (rice alpha-glucosidase; pH4.0, 37° C., 18 hours) of the same compound?
Answer: The value was 0.5%.

Question: What about the “Trehalose in degradation product by alpha-glucosidase” value (rice alpha-glucosidase; pH4.0, 37° C., 18 hours) of the same compound?
Answer: The value was 63.0%.
